From patent US20080044404A1, “Annexin V for Preventing Atherothrombosis and Plaque Rupture” (priority 2004, published 2008)
“And” between values parts separate entries of the source, which are not always exact repeats. Identical values can stand only once. Like-named read-outs stand apart in the source and are kept apart here.

Assays:
[1] = test system: human umbilical endothelia cells (HUVECs); assay: Annexin V binding to HUVECs after 24 hrs culture with high aPLs titer serum pre-incubated with test substance, flow cytometry; type: cell-based; details: for Effect on Annexin V binding to endothelial cells: preincubation of serum known to decrease binding; for Mean % of APS, Av / Median % of APS, Av: average of three; for Mean % of APS, Av / Median % of APS, Av / Mean % of APS / Median % of APS: 24 hrs culture; for Mean % of APS / Median % of APS: single experiments; for Geo Mean (fluorescence) / Mean (fluorescence) / Median (fluorescence) / Peak Ch / % Gated (Annexin V positive region): file '100' 24 hrs on HUVEC
Experimental: Cryopreserved pooled human umbilical venous endothelial cells (HUVECs) at passage 2 were purchased from Cascade Biologics, Inc. (Portland, Oreg., USA) the cultures were maintained in EGM™ phenol red-free medium (Clonetics, San Diego, Calif., USA), containing 2% of fetal bovine serum and supplements. The cells were incubated in 75 cm2 flasks (TPP, AG, Trasadingen, Switzerland) under humidified 5% CO2 in 37° C. conditions. All experiments were performed at passage 3 to 4. HUVECs were seeded at 2×10^4 cells/ml density in 12-well plates (NUNC, Inc, Naperville, Ill., USA) for flow cytometry analysis; at density of 1×10^4 cells/well/100 μl in 96-well plate (TPP) for MTT assay; at 8×10^3 cells/ml. density in 24-well plates (NUNC) for DNA fragmentation ELISA. After allowing 12-24 hours for attachment and careful washing with serum-free medium (SFM), the cells were made quiescent in SFM for at least 12 hrs prior to treatment. Heparin-preserved plasma from the study groups was added to the monolayer at concentration of 10% in SFM.
The cells were harvested non-enzymatically with Cell Dissociation Solution (CDS; Sigma-Aldrich, St. Louis, Mo., USA). HUVECs were carefully pooled with supernatants, to exclude selective loss of detached floating EC, and centrifuged at 1200 rpm for 7 min. After resuspension in 100 μl of Annexin V-binding buffer (Molecular Probes Inc, Eugene, Oreg., USA) samples were stained with 5 mg/ml of Annexin V-FITC (Mol. Probes) and incubated for 15 min on ice. Shortly before acquisition 1 mg/ml of propidium iodide (PI; R&DSystems Europe Ltd, Abingdon, UK) was added. Analysis was performed on a FACScan flow cytometer (BD Biosciences, San Jose, Calif., USA) equipped with CellQuest™ software. During acquisition a gate was set to exclude events smaller than 230 on linear FCS and SSC scale. For each sample 10000 events were collected.
Heparin-preserved plasma with high capacity to inhibit Annexin V binding was added to HUVECs monolayer at concentration of 10% in SFM. After 24 hrs cells were harvested with Cell Dissociation Solution (CDS; Sigma-Aldrich, St. Louis, Mo., USA) and carefully pooled with supernatants, to exclude selective loss of detached floating cells, centrifugation at 1200 rpm for 7 min followed. After resuspension in 100 μl of annexin V-binding buffer (Molecular Probes Inc, Eugene, Oreg., USA) samples were stained with 2 μl of 5 mg/ml annexin V-FITC (Molecular Probes) and incubated for 15 min on ice. Shortly before acquisition 1 mg/ml of propidium iodide (PI; a vital dye; R&DSystems Europe Ltd, Abingdon, UK) was added. Analysis was performed as described above.
The frequency of HUVECs positive for Annexin V staining was determined either as percentage of annexin V^+/PI^− cells on a bivariate dot plot or percentage of Annexin V^+ cells based on a histogram. Annexin V-binding to HUVECs in the presence of serum known to decrease binding and preincubated with IVIG was determined.

[2] = Serum binding to antigen after preincubation of serum with antigen; details: preincubation of serum with high capacity to induce decreased binding
Source text: Polysorp F96 microtiter immuno-plates were purchased from Nunc (Roskilde Denmark), PC-BSA (Phosphorylcholine-Bovine Serum Albumin) was purchased from Biosearch Technologies, INC (USA). Bovine serum albumin (BSA), Alkaline phosphatase conjugated goat anti-human IgG (r-chain specific), Alkaline phosphatase conjugated goat anti-human IgM (u-chain specific), PNPP(Alkaline phosphatase substrate), were obtained from Sigma (St. Louis, Mo., USA). For example, IgG and IgM antibodies to PC-BSA were determined by enzyme-linked immunosorbent assay (ELISA). Pooled serum from 17 antiphospholipid syndrome patients was used as an internal standard and tested on every plate. […] F96 microtiter polysorp plate was therefore coated with PC-BSA (10 μg/ml) 50 μl/well in PBS. Coated plates were incubated overnight at 4° C. After five washings with PBS, the plates were blocked with 2% BSA-PBS for 2 h at room temperature and washed as described above. Serum samples were diluted (1:30) in 0.2% BSA-PBS and added at 50 μl/well.

[3] = experimental animals; cited from earlier work
[4] = humans; cited from earlier work

Row | Molecule | Effect on Annexin V binding to endothelial cells [1] | Serum binding to antigen [2] | Mean % of APS, Av ([1]; 10 μg/ml) | Median % of APS, Av ([1]; 10 μg/ml) | Mean % of APS ([1]; 10 μg/ml) | Median % of APS ([1]; 10 μg/ml) | Mean % of APS, Av ([1]; 100 μg/ml) | Median % of APS, Av ([1]; 100 μg/ml) | Mean % of APS ([1]; 100 μg/ml) | Median % of APS ([1]; 100 μg/ml) | Geo Mean (fluorescence) ([1]; all events (100.00 % gated)) | Mean (fluorescence) ([1]; all events (100.00 % gated)) | Median (fluorescence) ([1]; all events (100.00 % gated)) | Peak Ch ([1]; all events (100.00 % gated)) | % Gated (Annexin V positive region) ([1]; second histogram region) [%] | Geo Mean (fluorescence) ([1]; second histogram region) | Mean (fluorescence) ([1]; second histogram region) | Median (fluorescence) ([1]; second histogram region) | Peak Ch ([1]; second histogram region) | also measured
1 | phosphatidylserine | restored Annexin V binding | decreased serum binding to antigen |  |  |  |  |  |  |  |  |  |  |  |  |  |  |  |  |  | 
2 | C[N+](C)(C)CCOP(=O)(O)O [PC, phosphorylcholine] | no significant effect |  |  |  |  |  |  |  |  |  |  |  |  |  |  |  |  |  |  | 
3 | CCCCCCCCCCCCCCCCOC[C@H](COP(=O)([O-])OCC[N+](C)(C)C)OC(C)=O [PAF] | restored Annexin V binding | decreased serum binding to antigen | 135 % of APS | 132 % of APS | 100 % of APS and 155.6 % of APS and 149.8 % of APS | 99 % of APS and 134 % of APS and 164 % of APS | 137 % of APS | 136 % of APS | 151 % of APS and 122 % of APS and 139 % of APS | 145 % of APS and 116 % of APS and 147 % of APS |  |  |  |  |  |  |  |  |  | 
4 | tetanus toxoid |  |  |  |  |  |  |  |  |  |  | 47.62 | 155.14 | 113.42 | 1 | 66.69 | 173.93 | 230.12 | 212.88 | 222 | 
5 | lysophosphatidylcholine [Lyso PC] | restored Annexin V binding | decreased serum binding to antigen | 150 % of APS | 146 % of APS | 123.6 % of APS and 156.9 % of APS and 169.5 % of APS | 121.88 % of APS and 138.23 % of APS and 178.5 % of APS | 156 % of APS | 155 % of APS | 158.1 % of APS and 114.7 % of APS and 195.12 % of APS | 175.39 % of APS and 115.4 % of APS and 174.65 % of APS | 62.95 | 275.37 | 153.99 | 1 | 67.03 | 268.96 | 408.50 | 352.27 | 453 | 
6 | Annexin V: Annexin V protein, binds calcium and negatively charged phospholipids |  |  |  |  |  |  |  |  |  |  |  |  |  |  |  |  |  |  |  | half-life in the circulation [3]: 5 to 15 min; half-life in the circulation [4]: short half-life
